Test results as given in patent US9927430B2, “Pro-substrates for live cell applications” (PROMEGA CORPORATION, priority 2014, dated 2018).
“Also recorded” adds a separate entry of the source.

Test: Furimazine release by hydrolysis at different pH, HPLC at 262 nm
Type: physicochemical
Procedure: The effect of pH on the hydrolysis of the disclosed compounds may be useful for high-throughput screening (HTS). The percent furimazine released in 1 mM of PBI-5455 solutions with different pH values ranging from 5.9 to 7.6 were detected over time using HPLC at 262 nm. […] These compounds can be used to support HTS operation methods to enhance the initial brightness by adjusting pH or adding an appropriate nucleophile.
As shown in Example 23, PBI-5455 is stable in slightly acidic buffer for 10 hrs. […] For BRET applications to detect protein-protein and/or ligand-protein interactions, if it is a one-time point reading, the concentration in media could be higher than 100-200 μM.

Structure (SMILES): CC(=O)NC(CC(=O)O)C(=O)NC(CC(=O)O)C(=O)NC(CC(=O)O)C(=O)N(C)CCN(CCCN1CCOCC1)C(=O)Oc1c(Cc2ccco2)nc2c(Cc3ccccc3)nc(-c3ccccc3)cn12 (centres unmarked) [PBI-5455, Ac-DDD-MOP-C2-FRZ]
- release of furimazine by hydrolysis (1 mM solutions, pH values ranging from 5.9 to 7.6, over time, HPLC at 262 nm (FIG. 14)): pH dependent; also recorded: The higher the pH, the faster the release
- stable in buffer (time) (slightly acidic buffer): 10 h
